Source: patent US20120245137A1 (Zalicus Pharmaceuticals Ltd., priority 2009, published 2012)

Target: N-type calcium channel subunits (α1B, α2δ, and β3a) (Homo sapiens, UniProt Q00975)
Experiment: Block of Cav2.2 channel, whole cell voltage clamp, manual and PatchXpress
Format: cell-based
Settings: Table 5; table follows Assay Example 3 (whole cell voltage clamp / PatchXpress); assay not given
Procedure: Cells are grown either on poly-D-lysine coated coverglass (manual EP) or in TIS culture plates (PatchXpress). For the PatchExpress, cells are released from the flask using trypsin. In both cases, the […] solution is (in mM): 130 […], 10 EGTA, 10 HEPES, 2 MgCl2, 3 MgATP, pH 7.3 with CsOH.
Microelectrodes are fabricated from borosilicate glass and fire-polished. […] The reference electrode is a silver-silver chloride pellet. Voltages are not corrected for the liquid junction potential between the internal and external solutions and leak is subtracted using the P/n procedure. Solutions are applied to cells by bath perfusion via gravity. The experimental chamber volume is—0.2 mL. and the perfusion rate is 0.5-2 mL/min. Flow of suction through the chamber is maintained at all times. Measurement of current amplitudes is performed with […] software (HEKA Elektronik).
PatchXpress (Molecular Devices) is a 16-well whole-cell automated patch clamp device that operates asynchronously with fully integrated fluidics. […] Capacitance and series resistance compensation is automated. No correction for liquid junction potentials is employed. Leak is subtracted using the P/n procedure. Compounds are added to cells with a pipettor from a 96-well compound plate. Voltage protocols and the recording of membrane currents are performed using the PatchXpress software/hardware system. Current amplitudes are calculated with DataXpress software.
In both manual and automated patch clamp, cells are voltage clamped at […] or −90 m V and 50 ms pulses to +20 mV are applied every 15 sec (0.067 Hz). Compounds are added in escalating doses to measure % inhibition. Percent inhibition is calculated from the ratio of the curerent amplitude in the presence and absence of compound. When multiple doses are achieved per cell, IC50 values are calculated.

N-type calcium channel subunits (α1B, α2δ, and β3a), sequence (Q00975 whole entry): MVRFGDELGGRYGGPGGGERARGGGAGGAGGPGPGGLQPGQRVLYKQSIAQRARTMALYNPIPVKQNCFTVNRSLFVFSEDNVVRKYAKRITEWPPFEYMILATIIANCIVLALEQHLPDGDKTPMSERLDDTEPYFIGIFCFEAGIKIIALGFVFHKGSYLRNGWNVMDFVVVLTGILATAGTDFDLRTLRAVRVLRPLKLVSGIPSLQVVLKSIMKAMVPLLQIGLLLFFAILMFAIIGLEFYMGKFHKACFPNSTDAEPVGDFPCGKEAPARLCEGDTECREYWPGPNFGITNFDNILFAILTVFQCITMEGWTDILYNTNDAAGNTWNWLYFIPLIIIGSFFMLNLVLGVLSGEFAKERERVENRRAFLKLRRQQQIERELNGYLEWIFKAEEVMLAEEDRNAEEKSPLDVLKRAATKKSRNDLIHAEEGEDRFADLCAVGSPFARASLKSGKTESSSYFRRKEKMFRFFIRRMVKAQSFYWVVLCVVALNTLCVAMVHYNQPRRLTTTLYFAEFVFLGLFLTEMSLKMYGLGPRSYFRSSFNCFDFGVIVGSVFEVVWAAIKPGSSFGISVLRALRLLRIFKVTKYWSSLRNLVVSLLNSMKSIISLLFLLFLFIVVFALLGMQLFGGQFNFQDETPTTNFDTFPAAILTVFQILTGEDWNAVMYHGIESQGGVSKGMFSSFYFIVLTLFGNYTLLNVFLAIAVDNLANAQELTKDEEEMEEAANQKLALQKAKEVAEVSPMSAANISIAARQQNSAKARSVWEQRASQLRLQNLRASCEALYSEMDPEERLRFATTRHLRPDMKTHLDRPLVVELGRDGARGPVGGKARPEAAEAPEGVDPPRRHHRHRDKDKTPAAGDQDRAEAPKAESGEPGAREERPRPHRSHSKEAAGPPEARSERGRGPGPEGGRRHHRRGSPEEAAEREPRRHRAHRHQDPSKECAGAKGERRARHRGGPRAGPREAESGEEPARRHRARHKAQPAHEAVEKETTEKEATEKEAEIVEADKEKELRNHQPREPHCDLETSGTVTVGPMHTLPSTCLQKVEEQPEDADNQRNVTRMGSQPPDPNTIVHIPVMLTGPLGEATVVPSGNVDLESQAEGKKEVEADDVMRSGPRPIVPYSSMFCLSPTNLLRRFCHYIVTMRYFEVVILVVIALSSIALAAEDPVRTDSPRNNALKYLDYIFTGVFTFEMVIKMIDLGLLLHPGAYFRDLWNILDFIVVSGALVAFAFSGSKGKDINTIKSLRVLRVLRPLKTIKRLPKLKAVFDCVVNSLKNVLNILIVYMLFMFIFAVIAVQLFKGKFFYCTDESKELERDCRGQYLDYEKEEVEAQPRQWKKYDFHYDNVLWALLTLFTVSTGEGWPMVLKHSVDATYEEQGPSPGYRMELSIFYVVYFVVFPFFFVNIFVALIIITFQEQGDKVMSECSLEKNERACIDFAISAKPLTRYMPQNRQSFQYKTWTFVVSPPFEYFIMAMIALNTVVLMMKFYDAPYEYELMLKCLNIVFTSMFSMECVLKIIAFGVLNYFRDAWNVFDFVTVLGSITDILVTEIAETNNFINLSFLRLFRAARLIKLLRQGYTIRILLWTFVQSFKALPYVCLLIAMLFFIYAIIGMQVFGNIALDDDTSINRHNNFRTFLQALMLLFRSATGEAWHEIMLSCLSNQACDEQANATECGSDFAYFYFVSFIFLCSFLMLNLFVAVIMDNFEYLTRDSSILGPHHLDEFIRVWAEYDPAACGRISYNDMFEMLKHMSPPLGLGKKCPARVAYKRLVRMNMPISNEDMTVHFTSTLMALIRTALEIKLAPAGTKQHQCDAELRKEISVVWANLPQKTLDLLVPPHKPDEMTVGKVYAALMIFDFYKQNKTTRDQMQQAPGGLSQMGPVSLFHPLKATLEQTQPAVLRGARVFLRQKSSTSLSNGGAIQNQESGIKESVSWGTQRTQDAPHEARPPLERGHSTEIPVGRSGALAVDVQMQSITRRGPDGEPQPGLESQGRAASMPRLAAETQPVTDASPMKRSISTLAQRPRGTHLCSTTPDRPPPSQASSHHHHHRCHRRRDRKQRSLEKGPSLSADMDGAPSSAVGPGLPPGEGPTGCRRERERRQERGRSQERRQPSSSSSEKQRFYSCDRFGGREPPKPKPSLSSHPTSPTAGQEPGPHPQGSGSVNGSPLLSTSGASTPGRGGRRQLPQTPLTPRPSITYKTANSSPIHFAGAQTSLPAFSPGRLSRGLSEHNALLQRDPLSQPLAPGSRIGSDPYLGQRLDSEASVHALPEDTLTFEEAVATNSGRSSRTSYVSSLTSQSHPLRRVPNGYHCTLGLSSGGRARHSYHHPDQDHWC
N-type calcium channel subunits (α1B, α2δ, and β3a), sequence (P54289 25-1103 partner): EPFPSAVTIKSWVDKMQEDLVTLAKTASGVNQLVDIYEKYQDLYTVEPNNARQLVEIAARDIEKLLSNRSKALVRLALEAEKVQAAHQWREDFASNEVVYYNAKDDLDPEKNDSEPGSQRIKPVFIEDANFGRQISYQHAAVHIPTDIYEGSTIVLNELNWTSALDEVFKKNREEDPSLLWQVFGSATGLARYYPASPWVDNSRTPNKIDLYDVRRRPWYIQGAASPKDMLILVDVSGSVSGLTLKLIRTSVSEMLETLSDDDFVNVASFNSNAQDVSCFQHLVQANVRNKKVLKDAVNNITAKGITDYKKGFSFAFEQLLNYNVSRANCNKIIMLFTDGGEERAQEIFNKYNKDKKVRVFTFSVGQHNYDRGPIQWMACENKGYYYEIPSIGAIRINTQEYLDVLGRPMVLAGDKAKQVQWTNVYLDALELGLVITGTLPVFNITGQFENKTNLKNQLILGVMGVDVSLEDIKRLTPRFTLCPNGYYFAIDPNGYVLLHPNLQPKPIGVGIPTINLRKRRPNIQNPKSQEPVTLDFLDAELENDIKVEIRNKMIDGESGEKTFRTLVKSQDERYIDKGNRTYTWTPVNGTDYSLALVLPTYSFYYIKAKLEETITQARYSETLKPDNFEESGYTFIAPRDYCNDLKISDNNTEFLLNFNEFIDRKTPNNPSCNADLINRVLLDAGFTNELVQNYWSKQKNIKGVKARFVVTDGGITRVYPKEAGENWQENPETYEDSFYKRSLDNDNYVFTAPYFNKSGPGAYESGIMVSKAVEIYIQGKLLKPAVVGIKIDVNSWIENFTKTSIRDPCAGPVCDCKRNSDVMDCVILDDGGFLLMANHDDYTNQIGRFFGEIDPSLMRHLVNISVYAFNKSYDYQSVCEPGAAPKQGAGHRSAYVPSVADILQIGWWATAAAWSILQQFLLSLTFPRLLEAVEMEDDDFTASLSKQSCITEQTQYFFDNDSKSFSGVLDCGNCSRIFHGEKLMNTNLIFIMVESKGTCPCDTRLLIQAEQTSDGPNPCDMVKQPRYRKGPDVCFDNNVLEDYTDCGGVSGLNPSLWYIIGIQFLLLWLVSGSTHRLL
N-type calcium channel subunits (α1B, α2δ, and β3a), sequence (P54284 whole entry partner): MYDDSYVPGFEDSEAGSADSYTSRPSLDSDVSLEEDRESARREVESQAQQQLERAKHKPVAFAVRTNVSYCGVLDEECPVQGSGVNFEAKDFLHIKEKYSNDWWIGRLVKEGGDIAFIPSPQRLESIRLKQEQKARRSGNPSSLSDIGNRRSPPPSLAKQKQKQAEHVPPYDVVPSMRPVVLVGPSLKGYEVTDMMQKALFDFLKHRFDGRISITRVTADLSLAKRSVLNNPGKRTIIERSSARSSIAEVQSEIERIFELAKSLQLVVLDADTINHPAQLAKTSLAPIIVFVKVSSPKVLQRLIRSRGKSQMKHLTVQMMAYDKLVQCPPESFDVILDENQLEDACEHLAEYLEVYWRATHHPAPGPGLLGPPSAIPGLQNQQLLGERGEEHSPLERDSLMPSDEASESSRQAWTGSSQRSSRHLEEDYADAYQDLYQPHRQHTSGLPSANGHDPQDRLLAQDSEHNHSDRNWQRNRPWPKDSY

Q: With “6-(trifluoromethyl)-N-((1S,4S)-4- (3-(trifluoromethyl)phenylsulfonyl) cyclohexyl)nicotinamide [Compound 199]” as the compound, how does the IC50 read?
A: The IC50 was 1250 nM.

Q: With `O=C(CCC(F)(F)F)NC1CCC(S(=O)(=O)c2cccc(C(F)(F)F)c2)CC1` (stereo not shown) [Compound 12, 4,4,4-trifluoro-N-(4-(3-(trifluoromethyl)phenylsulfonyl)cyclohexyl)butanamide] as the compound, how does the IC50 read?
A: Its IC50 is 1940 nM.

Q: How did the IC50 turn out when `O=C(NC[C@H]1CC[C@@H](S(=O)(=O)c2cccc(C(F)(F)F)c2)CC1)c1cc(C(F)(F)F)n[nH]1` [Compound 34, 3-(trifluoromethyl)-N-(((1S,4S)-4-(3-(trifluoromethyl)phenylsulfonyl)cyclohexyl)methyl)-1H-pyrazole-5-carboxamide] was run?
A: The IC50 was 640 nM.

Q: For `O=C(N[C@H]1CC[C@@H](S(=O)(=O)c2cccc(C(F)(F)F)c2)CC1)c1cc(F)cc(Cl)c1` [Compound 40, 3-chloro-5-fluoro-N-((1S,4S)-4-(3-(trifluoromethyl)phenylsulfonyl)cyclohexyl)benzamide], which IC50 is on record?
A: Its IC50 is 170 nM.

Q: Which IC50 does the source give for `O=C(N[C@H]1CC[C@@H](S(=O)(=O)c2cccc(C(F)(F)F)c2)CC1)C1CCOCC1` [Compound 44, N-((1S,4S)-4-(3-(trifluoromethyl)phenylsulfonyl)cyclohexyl)tetrahydro-2H-pyran-4-carboxamide] here?
A: Its IC50 is 5930 nM.

Q: For `O=C(CN[C@H]1CC[C@@H](S(=O)(=O)c2cccc(C(F)(F)F)c2)CC1)N1CCOCC1` [Compound 53, 1-morpholino-2-((1S,4S)-4-(3-(trifluoromethyl)phenylsulfonyl)cyclohexylamino)ethanone], which IC50 is on record?
A: The IC50 was 4720 nM.

Q: `O=C(N[C@H]1CC[C@H](S(=O)(=O)c2cccc(C(F)(F)F)c2)CC1)C1CCOCC1` [Compound 63, N-((1R,4R)-4-(3-(trifluoromethyl)phenylsulfonyl)cyclohexyl)tetrahydro-2H-pyran-4-carboxamide] was tested. Which IC50 did it give?
A: Its IC50 is 9980 nM.

Q: For `CCN(CC)C(=O)CN[C@H]1CC[C@H](S(=O)(=O)c2cccc(C(F)(F)F)c2)CC1` [Compound 71, N,N-diethyl-2-((1R,4R)-4-(3-(trifluoromethyl)phenylsulfonyl)cyclohexylamino)acetamide], which IC50 is on record?
A: The IC50 was 5870 nM.

Q: Which IC50 does the source give for `CC(C)NC(=O)CN[C@H]1CC[C@H](S(=O)(=O)c2cccc(C(F)(F)F)c2)CC1` [Compound 72, N-isopropyl-2-((1R,4R)-4-(3-(trifluoromethyl)phenylsulfonyl)cyclohexylamino)acetamide] here?
A: The IC50 was 8580 nM.

Q: `O=C(CN[C@H]1CC[C@H](S(=O)(=O)c2cccc(C(F)(F)F)c2)CC1)Nc1ccccn1` [Compound 77, N-(pyridin-2-yl)-2-((1R,4R)-4-(3-(trifluoromethyl)phenylsulfonyl)cyclohexylamino)acetamide] was tested. Which IC50 did it give?
A: Its IC50 is 740 nM.

Q: For `CC1(CNC(=O)c2nc3ccc(C(F)(F)F)cc3[nH]2)CCC(F)(S(=O)(=O)c2cccc(C(F)(F)F)c2)CC1` (stereo not shown) [Compound 156, N-((4-fluoro-1-methyl-4-(3-(trifluoromethyl)phenylsulfonyl)cyclohexyl)methyl)-6-(trifluoromethyl)-1H-benzo[d]imidazole-2-carboxamide], which IC50 is on record?
A: The IC50 was 1230 nM.

Q: How did the IC50 turn out when `COc1cc(C(=O)NCC2(C)CCC(F)(S(=O)(=O)c3cccc(C(F)(F)F)c3)CC2)ccn1` (stereo not shown) [Compound 157, N-((4-fluoro-1-methyl-4-(3-(trifluoromethyl)phenylsulfonyl)cyclohexyl)methyl)-2-methoxyisonicotinamide] was run?
A: The IC50 was 1030 nM.

Q: How did the IC50 turn out when `CC(C)(C)NCC(=O)N[C@H]1CC[C@H](CS(=O)(=O)c2cccc(C(F)(F)F)c2)CC1` [Compound 160, 2-(tert-butylamino)-N-((1R,4R)-4-((3-(trifluoromethyl)phenylsulfonyl)methyl)cyclohexyl)acetamide] was run?
A: Its IC50 is 1990 nM.

Q: Which IC50 does the source give for `CN(CC(=O)N[C@H]1CC[C@H](CS(=O)(=O)c2cccc(C(F)(F)F)c2)CC1)C(C)(C)C` [Compound 161, 2-(tert-butyl(methyl)amino)-N-((1R,4R)-4-((3-(trifluoromethyl)phenylsulfonyl)methyl)cyclohexyl)acetamide] here?
A: The IC50 was 2450 nM.

Q: Which IC50 does the source give for `O=C(CN1CCCCC1)N[C@H]1CC[C@H](CS(=O)(=O)c2cccc(C(F)(F)F)c2)CC1` [Compound 164, 2-(piperidin-1-yl)-N-((1R,4R)-4-((3-(trifluoromethyl)phenylsulfonyl)methyl)cyclohexyl)acetamide] here?
A: Its IC50 is 1810 nM.

Q: `O=C(N[C@H]1CC[C@H](CS(=O)(=O)c2cccc(C(F)(F)F)c2)CC1)c1cnccc1C(F)(F)F` [Compound 169, 4-(trifluoromethyl)-N-((1R,4R)-4-((3-(trifluoromethyl)phenylsulfonyl)methyl)cyclohexyl)nicotinamide] was tested. Which IC50 did it give?
A: The IC50 was 7110 nM.

Q: Which IC50 does the source give for `O=C(N[C@H]1CC[C@H](CS(=O)(=O)c2cccc(C(F)(F)F)c2)CC1)c1nsc(Cl)c1Cl` [Compound 170, 4,5-dichloro-N-((1R,4R)-4-((3-(trifluoromethyl)phenylsulfonyl)methyl)cyclohexyl)isothiazole-3-carboxamide] here?
A: Its IC50 is 4920 nM.

Q: With `O=C(N[C@H]1CC[C@H](CS(=O)(=O)c2cccc(C(F)(F)F)c2)CC1)c1ccc(OCC(F)(F)F)nc1` [Compound 171, 6-(2,2,2-trifluoroethoxy)-N-((1R,4R)-4-((3-(trifluoromethyl)phenylsulfonyl)methyl)cyclohexyl)nicotinamide] as the compound, how does the IC50 read?
A: Its IC50 is 480 nM.

Q: With `O=C(N[C@H]1CC[C@H](CS(=O)(=O)c2cccc(C(F)(F)F)c2)CC1)c1ccnc(C(F)(F)F)c1` [Compound 176, 2-(trifluoromethyl)-N-((1R,4R)-4-((3-(trifluoromethyl)phenylsulfonyl)methyl)cyclohexyl)isonicotinamide] as the compound, how does the IC50 read?
A: Its IC50 is 9440 nM.

Q: With `O=C(N[C@H]1CC[C@H](CS(=O)(=O)c2cccc(C(F)(F)F)c2)CC1)c1cncc(C(F)(F)F)c1` [Compound 177, 5-(trifluoromethyl)-N-((1R,4R)-4-((3-(trifluoromethyl)phenylsulfonyl)tmehyl)cyclohexyl)nicotinamide] as the compound, how does the IC50 read?
A: Its IC50 is 2060 nM.

Q: Which IC50 does the source give for `O=C(N[C@H]1CC[C@H](S(=O)(=O)c2cccc(C(F)(F)F)c2)CC1)c1ccnn1CC(F)(F)F` [Compound 180, 1-(2,2,2-trifluoroethyl)-N-((1R,4R)-4-(3-(trifluoromethyl)phenylsulfonyl)cyclohexyl)-1H-pyrazole-5-carboxamide] here?
A: The IC50 was 3350 nM.

Q: For `O=C(N[C@H]1CC[C@H](S(=O)(=O)c2cccc(C(F)(F)F)c2)CC1)c1ccnc(Cl)c1` [Compound 181, 2-chloro-N-((1R,4R)-4-(3-(trifluoromethyl)phenylsulfonyl)cyclohexyl)isonicotinamide], which IC50 is on record?
A: Its IC50 is 1830 nM.

Q: For `O=C(N[C@H]1CC[C@H](S(=O)(=O)c2cccc(C(F)(F)F)c2)CC1)c1ccc(OCC(F)(F)F)nc1` [Compound 184], which IC50 is on record?
A: The IC50 was 3110 nM.

Q: Which IC50 does the source give for `Cc1cc(C(=O)N[C@H]2CC[C@H](S(=O)(=O)c3cccc(C(F)(F)F)c3)CC2)c(C(F)(F)F)o1` [Compound 185, 5-methyl-2-(trifluoromethyl)-N-((1R,4R)-4-(3-(trifluoromethyl)phenylsulfonyl)cyclohexyl)furan-3-carboxamide] here?
A: The IC50 was 1630 nM.

Q: With `O=C(N[C@H]1CC[C@H](S(=O)(=O)c2cccc(C(F)(F)F)c2)CC1)c1ccc(C(F)(F)F)nc1` [Compound 186, 6-(trifluoromethyl)-N-((1R,4R)-4-(3-(trifluoromethyl)phenylsulfonyl)cyclohexyl)nicotinamide] as the compound, how does the IC50 read?
A: The IC50 was 5840 nM.

Q: With `O=C(N[C@H]1CC[C@H](S(=O)(=O)c2cccc(C(F)(F)F)c2)CC1)c1ccnc(C(F)(F)F)c1` [Compound 189, 2-(trifluoromethyl)-N-((1R,4R)-4-(3-(trifluoromethyl)phenylsulfonyl)cyclohexyl)isonicotinamide] as the compound, how does the IC50 read?
A: The IC50 was 1540 nM.

Q: How did the IC50 turn out when `CC(C)(C)S(=O)(=O)c1ccsc1C(=O)N[C@H]1CC[C@H](S(=O)(=O)c2cccc(C(F)(F)F)c2)CC1` [Compound 191, 3-(tert-butylsulfonyl)-N-((1R,4R)-4-(3-(trifluoromethyl)phenylsulfonyl)cyclohexyl)thiophene-2-carboxamide] was run?
A: The IC50 was 1220 nM.

Q: Which IC50 does the source give for `O=C(N[C@H]1CC[C@@H](S(=O)(=O)c2cccc(C(F)(F)F)c2)CC1)c1ccnc(Cl)c1` [Compound 194, 2-chloro-N-((1S,4S)-4-(3-(trifluoromethyl)phenylsulfonyl)cyclohexyl)isonicotinamide] here?
A: Its IC50 is 1330 nM.

Q: For `O=C(N[C@H]1CC[C@@H](S(=O)(=O)c2cccc(C(F)(F)F)c2)CC1)c1cnccc1C(F)(F)F` [Compound 195, 4-(trifluoromethyl)-N-((1S,4S)-4-(3-(trifluoromethyl)phenylsulfonyl)cyclohexyl)nicotinamide], which IC50 is on record?
A: The IC50 was 3150 nM.

Q: With `O=C(N[C@H]1CC[C@@H](S(=O)(=O)c2cccc(C(F)(F)F)c2)CC1)c1ccnc(F)c1` [Compound 201, 2-fluoro-N-((1S,4S)-4-(3-(trifluoromethyl)phenylsulfonyl)cyclohexyl)isonicotinamide] as the compound, how does the IC50 read?
A: Its IC50 is 1860 nM.

Q: Which IC50 does the source give for `O=C(N[C@H]1CC[C@@H](S(=O)(=O)c2cccc(C(F)(F)F)c2)CC1)c1cnc(C(F)(F)F)nc1` [Compound 205, 2-(trifluoromethyl)-N-((1S,4S)-4-(3-(trifluoromethyl)phenylsulfonyl)cyclohexyl)pyrimidine-5-carboxamide] here?
A: The IC50 was 1700 nM.
